In US5106407A, “Iodones and methods for antimicrobial use” (priority 1989, dated 1992):

Assays:
[1] = tested on: mixture of bacterial organisms listed in Table 1; assay: latex preservation test
Protocol: The latex was a vinylidene chloride-butadiene copolymer with a pH of 6.1.
(§1) Fifty gram aliquots of the latex were placed in sterile bottles and one hundred gram aliquots of the diluted cutting oil were placed in 250-mL Erlenmeyer flasks. An appropriate amount of a fresh 1 percent stock solution of (2-nitrophenyl)-iodonium 2,2-dimethyl-4,6-dioxo-1,3-dioxan-5-ylide in acetone-water was added to achieve the desired final concentrations (see Tables 5 and 6). A small portion of the respective latex or cutting oil preparation was then streaked onto Tryptic Soy Agar (TSA) petri plates using sterile cotton swabs to determine whether the preparations were sterile. If the particular preparation was sterile, it was then inoculated with an appropriate volume (0.1 mL for the latex and 0.2 mL for the cutting oil) of a mixture of equal aliquots of 24 hr cultures of each of the bacterial organisms listed in Table 1 (not the fungi and yeast). The latex samples were incubated at 30° C. and the cutting oils were agitated on a rotary shaker at room temperature. After 24 hr, all samples were again streaked on TSA. All plates were then incubated at 30° C. for 48 hr and then rated 1 to 10 according to the growth rating system described in Table 4.
(§2) The results from this first set of streaks after inoculation are listed in the columns labeled streak number 1 in Tables 5 and 6. Samples with a rating of 3 or less from streak number 1 were reinoculated as described for the first inoculation above. Samples with a rating of 4 or greater were not reinoculated. After another 24 hr all samples were again restreaked on TSA agar. The results from these second streaks were labeled streak number 2 in Tables 5 and 6. Samples were reinoculated and restreaked in this fashion for a maximum of 10 streaks. Any samples with two streaks in a row with a ten rating were not restreaked again.

[2] = tested on: bacteria listed in Table I, Klebsiella oxytoca, Enterobacter gergoviae, Pseudomonas putida #1, and Pseudomonas putida #2; assay: protein shampoo preservation test
Protocol: as §1, §2
The ingredients of the hand creme, hand lotion, and protein shampoo are listed in Tables 7, 8 and 9, respectively. In the cosmetic preservative procedures, the stock solution of (2-nitrophenyl)-iodonium 2,2-dimethyl-4,6-dioxo-1,3-dioxan-5-ylide) was made in dimethylformamide (DMF)/water solution. In addition to the bacteria listed in Table I, the following bacteria were also included in the inocula: Klebsiella oxytoca, Enterobacter gergoviae, Pseudomonas putida #1, and Pseudomonas putida #2.

In the case of `CC1(C)OC(=O)[C-]([I+]c2ccccc2[N+](=O)[O-])C(=O)O1` [Example 19, (2-Nitrophenyl)-iodonium 2,2-dimethyl-4,6-dioxo-1,3-dioxan-5-ylide], the growth rating ([1]; 25 ppm, streak 1) is reported as 1 (0), the growth rating ([1]; 25 ppm, streak 2) is reported as 9 and the growth rating ([1]; 25 ppm, streak 3) is reported as 1 (0). For the same compound, the growth rating ([1]; 25 ppm, streak 4) was 1 (0), the growth rating ([1]; 25 ppm, streak 5) was 1 (0) and the growth rating ([1]; 25 ppm, streak 6) was 1 (0). The growth rating ([1]; 25 ppm, streak 7) was 1 (0), the growth rating ([1]; 25 ppm, streak 8) was 1 (0) and the growth rating ([1]; 50 ppm, streak 1) was 1 (0). The growth rating ([1]; 50 ppm, streak 3) was 1 (0), the growth rating ([1]; 50 ppm, streak 4) was 1 (0) and the growth rating ([1]; 50 ppm, streak 5) was 1 (0). For the same compound, the growth rating ([1]; 50 ppm, streak 6) was 1 (0), the growth rating ([1]; 50 ppm, streak 7) was 1 (0) and the growth rating ([1]; 50 ppm, streak 8) was 1 (0). For the same compound, the growth rating ([1]; 50 ppm, streak 9) was 1 (0), the growth rating ([1]; 50 ppm, streak 10) was 1 (0) and the growth rating ([1]; 100 ppm, streak 1) was 1 (0). For the same compound, the growth rating ([1]; 100 ppm, streak 3) was 1 (0), the growth rating ([1]; 100 ppm, streak 4) was 1 (0) and the growth rating ([1]; 100 ppm, streak 5) was 1 (0). For the same compound, the growth rating ([1]; 100 ppm, streak 6) was 1 (0), the growth rating ([1]; 100 ppm, streak 7) was 1 (0) and the growth rating ([1]; 100 ppm, streak 8) was 1 (0). For the same compound, the growth rating ([1]; 100 ppm, streak 9) was 1 (0), the growth rating ([1]; 100 ppm, streak 10) was 1 (0) and the growth rating ([1]; 250 ppm, streak 1) was 1 (0). The growth rating ([1]; 250 ppm, streak 2) was 1 (0), the growth rating ([1]; 250 ppm, streak 3) was 1 (0) and the growth rating ([1]; 250 ppm, streak 4) was 1 (0). For the same compound, the growth rating ([1]; 250 ppm, streak 5) was 1 (0), the growth rating ([1]; 250 ppm, streak 6) was 1 (0) and the growth rating ([1]; 250 ppm, streak 7) was 1 (0). For the same compound, the growth rating ([1]; 250 ppm, streak 8) was 1 (0), the growth rating ([1]; 250 ppm, streak 9) was 1 (0) and the growth rating ([1]; 250 ppm, streak 10) was 1 (0). For the same compound, the growth rating ([1]; 500 ppm, streak 1) was 1 (0), the growth rating ([1]; 500 ppm, streak 2) was 1 (0) and the growth rating ([1]; 500 ppm, streak 3) was 1 (0). For the same compound, the growth rating ([1]; 500 ppm, streak 4) was 1 (0), the growth rating ([1]; 500 ppm, streak 5) was 1 (0) and the growth rating ([1]; 500 ppm, streak 6) was 1 (0). For the same compound, the growth rating ([1]; 500 ppm, streak 7) was 1 (0), the growth rating ([1]; 500 ppm, streak 8) was 1 (0) and the growth rating ([1]; 500 ppm, streak 9) was 1 (0). For the same compound, the growth rating ([1]; 500 ppm, streak 10) was 1 (0), the growth rating ([1]; 1000 ppm, streak 1) was 1 (0) and the growth rating ([1]; 1000 ppm, streak 2) was 1 (0). The growth rating ([1]; 1000 ppm, streak 3) was 1 (0), the growth rating ([1]; 1000 ppm, streak 4) was 1 (0) and the growth rating ([1]; 1000 ppm, streak 5) was 1 (0). For the same compound, the growth rating ([1]; 1000 ppm, streak 6) was 1 (0), the growth rating ([1]; 1000 ppm, streak 7) was 1 (0) and the growth rating ([1]; 1000 ppm, streak 8) was 1 (0). For the same compound, the growth rating ([1]; 1000 ppm, streak 9) was 1 (0), the growth rating ([1]; 1000 ppm, streak 10) was 1 (0) and the growth rating ([2]; 10 ppm, streak 1) was 1 (0). The growth rating ([2]; 10 ppm, streak 2) was 1 (0), the growth rating ([2]; 10 ppm, streak 10) was 1 (0) and the growth rating ([2]; 25 ppm, streak 1) was 1 (0). The growth rating ([2]; 25 ppm, streak 2) was 1 (0), the growth rating ([2]; 25 ppm, streak 3) was 1 (0) and the growth rating ([2]; 25 ppm, streak 4) was 1 (0). The growth rating ([2]; 25 ppm, streak 5) was 1 (0), the growth rating ([2]; 25 ppm, streak 6) was 1 (0) and the growth rating ([2]; 25 ppm, streak 7) was 1 (0). The growth rating ([2]; 25 ppm, streak 8) was 1 (0), the growth rating ([2]; 25 ppm, streak 9) was 1 (0) and the growth rating ([2]; 25 ppm, streak 10) was 1 (0). For the same compound, the growth rating ([2]; 50 ppm, streak 1) was 1 (0), the growth rating ([2]; 50 ppm, streak 2) was 1 (0) and the growth rating ([2]; 50 ppm, streak 3) was 1 (0). For the same compound, the growth rating ([2]; 50 ppm, streak 4) was 1 (0), the growth rating ([2]; 50 ppm, streak 5) was 1 (0) and the growth rating ([2]; 50 ppm, streak 6) was 1 (0). For the same compound, the growth rating ([2]; 50 ppm, streak 7) was 1 (0), the growth rating ([2]; 50 ppm, streak 8) was 1 (0) and the growth rating ([2]; 50 ppm, streak 9) was 1 (0). The growth rating ([2]; 50 ppm, streak 10) was 1 (0), the growth rating ([2]; 100 ppm, streak 1) was 1 (0) and the growth rating ([2]; 100 ppm, streak 2) was 1 (0). The growth rating ([2]; 100 ppm, streak 3) was 1 (0), the growth rating ([2]; 100 ppm, streak 4) was 1 (0) and the growth rating ([2]; 100 ppm, streak 5) was 1 (0). The growth rating ([2]; 100 ppm, streak 6) was 1 (0), the growth rating ([2]; 100 ppm, streak 7) was 1 (0) and the growth rating ([2]; 100 ppm, streak 8) was 1 (0). For the same compound, the growth rating ([2]; 100 ppm, streak 9) was 1 (0) and the growth rating ([2]; 100 ppm, streak 10) was 4 (11-25).
